Results taken from article PMC8929364, “Metopimazine is primarily metabolized by a liver amidase in humans” (Pharmacology Research & Perspectives, 2021).
Values joined by “and” are separate entries in the source; they are usually repeats but may differ in a detail not shown here. Equal entries are not always repeated.

How the values were obtained:
[1] = target: T1, CYP3A4 (Homo sapiens, UniProt P08684); test: Incubation of MPZ with recombinant CYP isoforms: CYP3A4; type: in vitro ADME; conditions: 1 µM MPZ, 60 min
T1 construct: purchased Corning Inc
From the text: (§1) All other procedures were the same as described previously.

[2] = target: T2, CYP3A5 (Homo sapiens, UniProt P20815); test: Incubation of MPZ with recombinant CYP isoforms: CYP3A5; type: in vitro ADME; conditions: 1 µM MPZ, 60 min
T2 construct: purchased Corning Inc
From the text: as §1

[3] = Incubation of MPZ with pooled human liver microsomes (disappearance, metabolite formation); type: in vitro ADME; conditions: metopimazine incubation in human liver microsomes, full scan LC–MS
Experimental: To conduct the metabolic incubation in liver microsomes in the linear range, protein concentration and the reaction time were optimized.
PAR was also used for all positive control compounds.
The degree of disappearance of each analyte was evaluated by comparing the PAR of analyte to IS or concentration in different sampling time points to the PAR of time zero, (t = 0, 100%). The percent of parent remaining values were calculated according to the following equation: %parentremaining=(meanconcentrationorPARateachsamplingtimepoint/meanconcentrationorPARoftimezero)×100

[4] = Clinical study NG100-101: plasma pharmacokinetics of metopimazine and metabolites after a single oral 60 mg dose; type: in vivo, healthy adult subjects (human); conditions: for % Drug‐related material MPZS: based on AUClast
Experimental: The clinical study was conducted at Biotrial Rennes, in accordance with the Declaration of Helsinki. The study (NG100‐101) was a double‐blind, placebo‐ controlled, ascending single‐ and multiple‐dose study of the safety, tolerability, and pharmacokinetics of metopimazine administered orally to healthy adult subjects. The study protocol, informed consent form, and appropriate related documents were approved by the institutional review board, and all subjects provided written informed consent prior to participation in the study. […] In the morning, after at least 10 h of fasting overnight, eight healthy adult subjects (male or female aged 18 to 45), were orally administered metopimazine (or a matching placebo). […] Blood samples were collected at the following time points: predose and 0.25, 0.5, 0.75, 1, 1.25, 1.5, 2, 3, 4, 6, 8, 12, 18, and 24 h postdose; plasma samples were obtained by centrifugation of the blood samples. A comprehensive safety and pharmacokinetic analysis was performed for each cohort for the SAD and MAD parts of the study and will be presented elsewhere. A fit‐for‐purpose discovery method was used to analyze 4 subjects from the highest single dosed cohort for the presence of metabolites. Plasma concentrations of metopimazine, metopimazine acid and metopimazine sulfoxide were quantified using LC–MS/MS methods. Venous blood samples (6 ml) for the determination of plasma concentrations of MPZ and metabolites (MPZA and MPZS) were drawn by direct venipuncture or via an intravenous catheter into K2EDTA Vacutainer® tubes. It was important to avoid hemolysis during blood collection. After collection, the blood samples were centrifuged within 60 min, at 3000 rotations per minute for 10 min at 5°C. The resulting plasma was separated into 2 equal aliquots of 1000 µl (aliquots A & B) and transferred to polypropylene tubes, which were labeled, frozen within 120 min of blood collection and stored at –70°C until required for bioanalysis. Immediately prior to bioanalysis, samples were thawed and a 200 µl aliquots were removed and analytes extracted using acetonitrile protein precipitation. The extracted samples were analyzed twice, once for quantification of MPZ and MPZA and again for MPZS quantification as described below. An MRM LC–MS/MS method was developed for MPZ and metopimazine acid (MPZA) in rat, dog, and human plasma. The method was run in reverse phase in positive ion mode. […] D6‐isotopically labeled internal standards were used for each analyte. The following m/z transitions were monitored: metopimazine 446.3 → 141.1 and metopimazine acid 447.2 → 142.1. […] An MRM LC–MS/MS method was developed to look for metopimazine sulfoxide (MPZS) in human plasma. The method was run in reverse phase in positive ion mode. The system was identical to what was described above except that a slightly longer column was used, a Supelco Discovery HS F5 100 × 4.0 mm (3 µm) column (Sigma‐Aldrich). A D6‐isotopically labeled internal standards was used for MPS and the m/z transition monitored was 462.3 → 98.1. A calibration curve was generated for the quantification of MPZS in human plasma. Noncompartmental Pharmacokinetics analysis was performed in Phoenix 64 Winnonlin version 8.1.

[5] = system: human liver microsomal amidase; test: Incubations with heat-treated HLM for microsomal hydrolase/amidase activity, with and without BNPP; type: in vitro ADME; conditions: 10 µM MPZ, HLM, 60 min
Experimental: Prior to the reaction for amidase activity, the reaction mixture containing KPi buffer (pH 7.4, 8.4, or 9.4) and HLM was pre‐incubated at 50°C for 5 min to inactivate CYP and FMO activities in HLM. The mixture was placed on ice to cool down. An aliquot was taken out which was considered as t = 0 min incubation. Then 10 µM MPZ was added into the remaining mixture and incubated at 37°C on an orbital shaker for 60 min. A parallel set of incubations was conducted with 10 µM MPZ in the presence at 2 and 16 µM, of BNPP (a known inhibitor of amidase). All reactions were in triplicate. The total percentage of organic solvent in the incubation mixture was ≤0.1%. The reactions were terminated by the addition of chilled acetonitrile: methanol, 90:10, (v/v). The samples were vortex‐mixed and stored at ≤−70°C and were subjected analyzed by LC–MS/MS.

[6] = system: microsomal FMOs; test: Incubation of MPZ with HLM for FMO, with and without methimazole; type: in vitro ADME, human; conditions: 1 mM methimazole, pH 8.4, NADPH, 60 min
Experimental: MPZ, at 1.0 and 10.0 µM, was incubated with HLM or HKM to determine the contribution of microsomal FMOs on the metabolism of MPZ.
A reaction mixture containing KPi buffer (pH 8.4), HLM or HKM (0.5 mg/ml protein) and MPZ (1.0 and 10.0 µM) was pre‐incubated for 3–5 min at 37°C. The reaction was initiated by the addition of NADPH into the reaction mixture. The reaction was conducted for 0 and 60 min. A positive control (benzydamine, 100 µM) was incubated in duplicate for 0 and 20 min. Parallel incubation was conducted by adding 1 mM methimazole, a non‐specific FMO inhibitor, under identical conditions. Heat‐inactivated microsomes (50°C for at least 5 min) was incubated under identical conditions negative control. All other procedures were the same as described previously.

[7] = system: microsomal CYP enzymes; test: HLM incubation of MPZ with CYP inhibitors; conditions: HLM 0.5 mg/ml, 60 min; for effect of inhibitor on MPZH formation from MPZ (peak area ratio, qualitative) / effect of inhibitor on MPZS formation from MPZ: 1 mM ABT; for effect of inhibitor on MPZH formation from MPZ (peak area ratio, qualitative): quinidine 1 µM; for effect of inhibitor on MPZS formation from MPZ: itraconazole 2.5 µM
Experimental: Initially, two sets of incubations were conducted with HLM (0.5 mg/ml microsomal protein), 1 and 10 μM MPZ, 100 mM KPi buffer (pH 7.4) where one set was in the presence and the other set was in the absence of 1 mM ABT, a non‐specific CYP inhibitor for 60 min. This allowed the assessment of total CYP contribution for MPZ metabolism. Then, CYP‐specific chemical inhibitors were used to assess the contribution of individual major CYP‐isoforms where HLM were incubated with 1 or 10 μM MPZ in the presence and in the absence of each CYP specific inhibitor at 37°C for 60 min. […] Parallel incubation with seven CYP specific probe substrates (phenacetin for CYP1A2, bupropion for CYP2B6, paclitaxel for CYP2C8, diclofenac for CYP2C9, S‐mephenytoin for CYP2C19, dextromethorphan for CYP2D6 and midazolam for CYP3A4/5) were included in as positive controls. For negative control reaction, MPZ was incubated at 37°C in duplicate in a reaction mixture devoid of NADPH. All other procedures were the same as described previously.
LC separation conditions were developed for MPZ and its metabolites (MPZA and MPZS), 7‐hydroxycoumarin, each metabolite of CYP probe substrate, benzydamine N‐oxide, and phthalazine. The LC–MS/MS system consisted of a Shimadzu Nexera X2 LC‐30 UPLC system (Shimadzu Corporation), and an API 4000 triple quadrupole mass spectrometer (SCIEX) was used for analysis. All analytes were analyzed using electrospray ionization (ESI) in positive ion mode except for 7‐EC, which used negative ion mode. The LC–MS/MS system was controlled by Analyst software (version 1.6.1, SCIEX).
For each analytical method, a calibration curve was generated for the quantification of MPZ and its two metabolites (MPZA and MPZS). […] PAR was also used for all positive control compounds.

[8] = 4 subjects, single oral 60 mg MPZ dose
[9] = plasma, individual subjects, single oral 60 mg MPZ dose

T1 sequence (P08684 whole entry, canonical isoform): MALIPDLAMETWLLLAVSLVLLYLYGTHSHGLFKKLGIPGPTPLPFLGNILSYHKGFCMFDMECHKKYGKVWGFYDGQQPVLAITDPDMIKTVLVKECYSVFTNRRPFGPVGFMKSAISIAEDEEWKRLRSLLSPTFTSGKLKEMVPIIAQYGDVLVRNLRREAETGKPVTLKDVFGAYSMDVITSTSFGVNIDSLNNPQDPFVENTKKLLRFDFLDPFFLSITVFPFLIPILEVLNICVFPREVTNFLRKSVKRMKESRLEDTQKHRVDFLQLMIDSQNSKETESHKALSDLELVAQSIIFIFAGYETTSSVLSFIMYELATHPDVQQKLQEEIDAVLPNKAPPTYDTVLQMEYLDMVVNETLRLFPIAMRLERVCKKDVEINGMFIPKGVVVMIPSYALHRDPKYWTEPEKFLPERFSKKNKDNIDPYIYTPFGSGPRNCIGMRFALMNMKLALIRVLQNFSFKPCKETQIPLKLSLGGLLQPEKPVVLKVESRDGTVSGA
T2 sequence (P20815 whole entry, canonical isoform): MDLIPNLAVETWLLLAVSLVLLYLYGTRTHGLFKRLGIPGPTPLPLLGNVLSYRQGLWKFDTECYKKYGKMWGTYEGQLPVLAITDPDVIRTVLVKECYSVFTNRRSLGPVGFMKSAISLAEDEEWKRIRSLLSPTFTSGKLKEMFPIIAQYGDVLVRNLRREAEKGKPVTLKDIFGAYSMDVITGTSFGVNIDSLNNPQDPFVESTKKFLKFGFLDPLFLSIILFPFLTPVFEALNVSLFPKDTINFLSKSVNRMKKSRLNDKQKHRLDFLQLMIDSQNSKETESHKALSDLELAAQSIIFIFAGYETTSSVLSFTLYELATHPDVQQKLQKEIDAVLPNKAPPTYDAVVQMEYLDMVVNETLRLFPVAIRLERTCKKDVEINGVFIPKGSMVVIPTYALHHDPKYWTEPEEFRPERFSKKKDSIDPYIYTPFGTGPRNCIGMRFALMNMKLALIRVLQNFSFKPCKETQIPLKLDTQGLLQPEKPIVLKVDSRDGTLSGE

SMILES: CS(=O)(=O)c1ccc2c(c1)N(CCCN1CCC(C(N)=O)CC1)c1ccccc1[S+]2[O-] (stereo not shown) [MPZS, metopimazine sulfoxide]
- metabolite formation by recombinant CYP3A4 [1]: mainly produced by CYP3A4
- metabolite formation by recombinant CYP3A5 [2]: not CYP3A5
- Peak area at time 0 [3]: 0
- Peak area at time 90 min [3]: 59
- quantifiability in plasma at late time points [4, 8]: not quantifiable by 12 h
- time of first appearance in plasma [4, 8]: 30 to 45 min
- % Drug‐related material MPZS ([4]; individual subjects, single 60 mg dose): 0.4% and 0.9% and 0.5% and 0.8%
- % Drug‐related material MPZS ([4]; mean of 4 subjects, single 60 mg dose): 0.7%
- AUC(0-t) ([4]; both sexes, human, plasma, po, 60 mg, plasma, mean of 4 subjects, single oral 60 mg MPZ dose, read-out: MPZS AUClast): 15.8 ng·h/mL
- Cmax ([4]; both sexes, human, plasma, po, 60 mg, plasma, mean of 4 subjects, single oral 60 mg MPZ dose, read-out: MPZS C max): 4.9 ng/mL
- MPZS AUClast [4, 9]: 7.6 ng‐h/ml and 25.5 ng‐h/ml and 10.0 ng‐h/ml and 20.1 ng‐h/ml
- MPZS C max [4, 9]: 1.6 ng/mL and 10.2 ng/mL and 3.1 ng/mL and 4.6 ng/mL
- MPZS T max [4, 9]: 4 h and 1.25 h and 1 h
- percent of total circulating drug‐related material ([4]; rough estimate based on AUClast, single 60 mg dose): less than 1%

SMILES: O=[N+]([O-])c1ccc(OP(=O)(O)Oc2ccc([N+](=O)[O-])cc2)cc1 [BNPP, bis‐p‐nitrophenyl phosphate]
- inhibition of MPZA formation ([5]; 2 μM BNPP, even at the highest pH): at least 97%
- inhibition of MPZA formation ([5]; 16 μM BNPP, all three pH values (7.4, 8.4, 9.4)): > 99%

SMILES: Cn1cc[nH]c1=S [methimazole]
- effect of FMO inhibitor on MPZA formation in HLM [6]: not inhibited

SMILES: C=C[C@H]1C[N@@]2CC[C@H]1C[C@@H]2[C@@H](O)c1ccnc2ccc(OC)cc12 [quinidine]
- effect of inhibitor on MPZH formation from MPZ (peak area ratio, qualitative) [7]: inhibited

SMILES: Nn1nnc2ccccc21 [1‐ABT, 1‐aminobenzotriazole]
- effect of inhibitor on MPZA formation from MPZ ([7]; 1 mM ABT or CYP-isoform specific inhibitors): no effect on MPZA
- effect of inhibitor on MPZS formation from MPZ [7]: inhibited the formation of MPZS
- effect of inhibitor on MPZH formation from MPZ (peak area ratio, qualitative) [7]: inhibited

SMILES: CCC(C)n1ncn(-c2ccc(N3CCN(c4ccc(OCC5COC(Cn6cncn6)(c6ccc(Cl)cc6Cl)O5)cc4)CC3)cc2)c1=O (stereo not shown) [itraconazole]
- effect of inhibitor on MPZS formation from MPZ [7]: clearly inhibited
